As a reminder, the remaining activity is the signal under treatment as a percentage of the control signal.

What all share (type): biochemical
The target in one test is T1, SIK2[T96Q] (Homo sapiens, UniProt Q9H0K1, T96Q).
T1 construct: GST; made in house; host or cells: HEK293 cells
The settings on record: gatekeeper threonine mutated to glutamine.

The next test deals with T2, BRSK2 (Homo sapiens, UniProt Q8IWQ3).
T2 sequence (Q8IWQ3 1-736): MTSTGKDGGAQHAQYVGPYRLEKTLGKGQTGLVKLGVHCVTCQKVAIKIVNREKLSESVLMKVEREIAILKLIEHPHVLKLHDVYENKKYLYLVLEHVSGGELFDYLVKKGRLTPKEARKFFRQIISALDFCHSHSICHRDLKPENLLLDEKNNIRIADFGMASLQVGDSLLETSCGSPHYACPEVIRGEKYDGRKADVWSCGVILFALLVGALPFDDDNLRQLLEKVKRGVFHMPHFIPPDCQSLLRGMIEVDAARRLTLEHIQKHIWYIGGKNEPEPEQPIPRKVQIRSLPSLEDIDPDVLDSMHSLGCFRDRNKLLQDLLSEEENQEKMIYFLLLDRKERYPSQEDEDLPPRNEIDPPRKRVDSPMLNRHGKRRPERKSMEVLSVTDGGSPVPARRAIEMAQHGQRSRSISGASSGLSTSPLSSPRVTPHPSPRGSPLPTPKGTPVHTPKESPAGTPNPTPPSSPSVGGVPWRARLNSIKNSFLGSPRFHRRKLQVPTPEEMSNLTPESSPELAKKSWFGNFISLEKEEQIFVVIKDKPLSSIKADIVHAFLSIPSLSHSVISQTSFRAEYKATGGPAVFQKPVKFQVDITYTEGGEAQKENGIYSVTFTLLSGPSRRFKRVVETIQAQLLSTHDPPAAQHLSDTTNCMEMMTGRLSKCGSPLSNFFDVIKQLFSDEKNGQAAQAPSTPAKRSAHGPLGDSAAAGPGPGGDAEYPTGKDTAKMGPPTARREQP
Briefly: Kinase profiling.

Another test has as its target MLK1 (Homo sapiens, UniProt P80192). Briefly: Kinase profiling.
For a further test, the target named is T3, PINK (Tribolium castaneum, UniProt D6WMX4).
T3 sequence (D6WMX4 1-570): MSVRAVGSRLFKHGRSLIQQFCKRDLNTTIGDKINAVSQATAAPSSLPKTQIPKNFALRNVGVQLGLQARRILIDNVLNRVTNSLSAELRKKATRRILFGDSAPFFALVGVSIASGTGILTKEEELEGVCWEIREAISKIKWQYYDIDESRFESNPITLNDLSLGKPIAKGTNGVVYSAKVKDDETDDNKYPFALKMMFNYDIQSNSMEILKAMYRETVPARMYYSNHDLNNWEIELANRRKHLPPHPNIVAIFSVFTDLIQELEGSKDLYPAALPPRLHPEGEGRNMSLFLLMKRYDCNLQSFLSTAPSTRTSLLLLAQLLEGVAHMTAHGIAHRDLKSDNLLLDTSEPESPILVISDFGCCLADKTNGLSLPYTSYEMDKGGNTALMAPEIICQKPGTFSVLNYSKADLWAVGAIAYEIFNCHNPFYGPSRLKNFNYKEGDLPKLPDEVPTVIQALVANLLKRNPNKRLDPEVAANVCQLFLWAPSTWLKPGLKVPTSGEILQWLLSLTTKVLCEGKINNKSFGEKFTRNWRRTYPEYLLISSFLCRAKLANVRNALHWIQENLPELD
Briefly: Kinase profiling.

Another test has as its target PKB beta (Homo sapiens, UniProt P31751). Briefly: Kinase profiling.
For the next test, the target named is RIPK2 (Homo sapiens, UniProt O43353). Briefly: Kinase profiling.
The target of a further test is T4, SGK1 (Homo sapiens, UniProt O00141).
T4 sequence (O00141 1-431): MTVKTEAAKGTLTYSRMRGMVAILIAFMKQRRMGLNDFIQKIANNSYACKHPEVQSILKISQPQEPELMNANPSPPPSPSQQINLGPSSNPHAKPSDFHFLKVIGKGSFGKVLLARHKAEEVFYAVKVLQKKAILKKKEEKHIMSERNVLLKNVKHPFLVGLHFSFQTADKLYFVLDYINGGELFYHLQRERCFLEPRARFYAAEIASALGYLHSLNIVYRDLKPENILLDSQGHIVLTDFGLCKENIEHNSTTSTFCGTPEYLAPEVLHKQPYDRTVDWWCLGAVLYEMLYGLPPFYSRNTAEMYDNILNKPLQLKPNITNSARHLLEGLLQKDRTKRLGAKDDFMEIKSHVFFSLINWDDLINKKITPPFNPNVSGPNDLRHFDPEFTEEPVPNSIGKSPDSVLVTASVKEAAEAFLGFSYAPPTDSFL
Briefly: Kinase profiling.

The next test has as its target SIK2 (Homo sapiens, UniProt Q9H0K1). Briefly: Kinase profiling.

PKB beta, sequence (P31751 whole entry): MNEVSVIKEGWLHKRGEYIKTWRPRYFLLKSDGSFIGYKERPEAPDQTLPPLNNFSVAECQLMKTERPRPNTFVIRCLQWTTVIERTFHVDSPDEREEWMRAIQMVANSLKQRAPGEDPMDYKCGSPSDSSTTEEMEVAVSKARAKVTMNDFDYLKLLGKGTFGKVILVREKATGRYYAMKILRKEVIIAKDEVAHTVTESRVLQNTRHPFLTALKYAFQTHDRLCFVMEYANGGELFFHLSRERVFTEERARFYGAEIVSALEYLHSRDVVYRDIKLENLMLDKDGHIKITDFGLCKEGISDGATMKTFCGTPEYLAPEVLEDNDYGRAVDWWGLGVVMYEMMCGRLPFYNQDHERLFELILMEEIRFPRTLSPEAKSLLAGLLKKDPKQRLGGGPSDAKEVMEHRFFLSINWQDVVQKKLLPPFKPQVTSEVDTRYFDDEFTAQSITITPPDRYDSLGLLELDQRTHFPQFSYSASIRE
MLK1, sequence (P80192 whole entry): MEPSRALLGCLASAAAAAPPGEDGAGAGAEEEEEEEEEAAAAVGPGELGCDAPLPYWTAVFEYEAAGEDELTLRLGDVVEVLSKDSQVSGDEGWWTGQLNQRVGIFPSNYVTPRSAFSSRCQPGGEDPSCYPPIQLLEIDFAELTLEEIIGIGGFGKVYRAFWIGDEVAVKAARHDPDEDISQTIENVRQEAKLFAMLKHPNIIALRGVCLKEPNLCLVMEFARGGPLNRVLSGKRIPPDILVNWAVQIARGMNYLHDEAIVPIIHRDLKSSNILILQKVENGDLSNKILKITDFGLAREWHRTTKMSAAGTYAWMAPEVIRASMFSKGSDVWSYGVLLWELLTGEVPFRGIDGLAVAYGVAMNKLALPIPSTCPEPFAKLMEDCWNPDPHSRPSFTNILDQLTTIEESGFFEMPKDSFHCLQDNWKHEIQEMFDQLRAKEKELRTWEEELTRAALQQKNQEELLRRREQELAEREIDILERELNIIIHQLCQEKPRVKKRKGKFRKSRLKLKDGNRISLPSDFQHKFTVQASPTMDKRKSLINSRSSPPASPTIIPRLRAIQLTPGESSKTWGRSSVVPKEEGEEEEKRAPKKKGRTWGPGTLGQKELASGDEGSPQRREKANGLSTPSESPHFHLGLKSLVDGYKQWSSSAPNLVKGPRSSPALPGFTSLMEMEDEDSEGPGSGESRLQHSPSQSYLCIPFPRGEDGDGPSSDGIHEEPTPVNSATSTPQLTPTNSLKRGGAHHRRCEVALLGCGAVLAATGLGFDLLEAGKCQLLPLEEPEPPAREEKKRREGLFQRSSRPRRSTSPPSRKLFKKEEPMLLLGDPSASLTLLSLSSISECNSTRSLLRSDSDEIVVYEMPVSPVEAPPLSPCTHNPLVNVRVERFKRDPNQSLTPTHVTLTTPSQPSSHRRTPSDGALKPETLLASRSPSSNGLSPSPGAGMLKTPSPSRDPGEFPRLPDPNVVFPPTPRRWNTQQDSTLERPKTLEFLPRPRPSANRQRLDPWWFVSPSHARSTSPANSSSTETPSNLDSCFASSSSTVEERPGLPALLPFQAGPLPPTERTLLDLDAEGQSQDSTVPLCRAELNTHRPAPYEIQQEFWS
RIPK2, sequence (O43353 whole entry): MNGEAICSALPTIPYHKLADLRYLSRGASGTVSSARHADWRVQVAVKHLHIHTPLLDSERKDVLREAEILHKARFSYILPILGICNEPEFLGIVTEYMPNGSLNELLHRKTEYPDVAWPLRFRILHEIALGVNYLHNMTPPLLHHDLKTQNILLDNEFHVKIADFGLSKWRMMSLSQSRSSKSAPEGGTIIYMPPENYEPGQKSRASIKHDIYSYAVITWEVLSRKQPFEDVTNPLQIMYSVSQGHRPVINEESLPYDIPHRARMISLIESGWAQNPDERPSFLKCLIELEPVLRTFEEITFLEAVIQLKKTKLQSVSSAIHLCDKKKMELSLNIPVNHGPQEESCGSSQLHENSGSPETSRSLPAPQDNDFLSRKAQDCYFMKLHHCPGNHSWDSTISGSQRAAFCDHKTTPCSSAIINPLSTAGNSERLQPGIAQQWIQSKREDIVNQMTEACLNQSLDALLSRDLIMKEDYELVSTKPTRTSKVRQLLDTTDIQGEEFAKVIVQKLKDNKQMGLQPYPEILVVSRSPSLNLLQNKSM
SIK2, sequence (Q9H0K1 whole entry): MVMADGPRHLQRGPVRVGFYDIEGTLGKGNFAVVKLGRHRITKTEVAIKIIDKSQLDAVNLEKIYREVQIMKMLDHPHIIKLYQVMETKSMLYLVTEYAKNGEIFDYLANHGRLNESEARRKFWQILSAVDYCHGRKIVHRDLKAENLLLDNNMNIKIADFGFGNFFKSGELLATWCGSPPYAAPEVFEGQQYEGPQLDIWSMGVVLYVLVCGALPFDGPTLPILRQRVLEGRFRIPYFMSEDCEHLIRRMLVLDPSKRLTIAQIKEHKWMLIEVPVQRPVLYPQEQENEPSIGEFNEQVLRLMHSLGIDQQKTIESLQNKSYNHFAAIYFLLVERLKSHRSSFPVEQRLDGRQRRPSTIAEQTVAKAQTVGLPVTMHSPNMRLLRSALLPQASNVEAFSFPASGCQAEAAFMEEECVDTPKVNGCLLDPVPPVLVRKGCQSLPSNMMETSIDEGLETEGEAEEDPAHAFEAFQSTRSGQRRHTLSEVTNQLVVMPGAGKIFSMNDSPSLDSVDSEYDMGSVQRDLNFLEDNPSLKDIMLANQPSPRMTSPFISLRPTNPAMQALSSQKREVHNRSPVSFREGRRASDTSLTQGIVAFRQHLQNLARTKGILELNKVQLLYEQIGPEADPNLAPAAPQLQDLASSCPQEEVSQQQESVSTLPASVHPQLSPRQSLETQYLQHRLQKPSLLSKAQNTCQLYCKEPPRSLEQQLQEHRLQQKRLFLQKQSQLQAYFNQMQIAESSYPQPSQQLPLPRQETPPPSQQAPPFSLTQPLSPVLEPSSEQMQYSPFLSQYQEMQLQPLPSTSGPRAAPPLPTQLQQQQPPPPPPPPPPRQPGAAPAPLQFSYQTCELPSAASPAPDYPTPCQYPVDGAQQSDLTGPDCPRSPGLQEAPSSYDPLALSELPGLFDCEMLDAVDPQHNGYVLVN
T1 sequence (Q9H0K1 whole entry T96Q): as the sequence (Q9H0K1 whole entry) above, with T96Q counted along it

Take `COc1cc(Nc2c(C#N)cnc3cc(OCCCN4CCN(C)CC4)c(OC)cc23)c(Cl)cc1Cl` [Bosutinib, bosutinib]: the “Loss of sensitivity of SIK2[T96Q] versus wild-type” value on SIK2[T96Q] is given as 100–1000 fold. In addition, the remaining activity at 0.1 µM was found to be 107 ± 12% at BRSK2; 52 ± 9% on MLK1; 112 ± 9% at PINK; 102 ± 6% at PKB beta; 86 ± 2% at RIPK2; 98 ± 20% on SGK1. Moreover, the remaining activity at 0.1 µM on SIK2 was determined as 8%. The remaining activity at 1 µM is 120 ± 4% at BRSK2; 18 ± 4% on MLK1; 125 ± 13% at PINK; 90 ± 3% on PKB beta; 45 ± 1% at RIPK2; 100 ± 2% at SGK1. In addition, the remaining activity at 1 µM on SIK2 was 3%.

Turning to `Cc1nc(Nc2ncc(C(=O)Nc3c(C)cccc3Cl)s2)cc(N2CCN(CCO)CC2)n1` [Dasatinib], at SIK2[T96Q], the “Loss of sensitivity of SIK2[T96Q] versus wild-type” value is 100–1000 fold. Further, the remaining activity at 0.1 µM is 102 ± 14% at BRSK2; 72 ± 1% on MLK1; 117 ± 1% at PINK; 94 ± 11% on PKB beta; 5% on RIPK2; 87 ± 11% on SGK1. Further, the remaining activity at 0.1 µM on SIK2 worked out at 4 ± 1%. Moreover, the remaining activity at 1 µM on BRSK2 was 108 ± 13%; on MLK1 it was 41 ± 2%; on PINK, 133 ± 5%; on PKB beta it was 94 ± 2%; on RIPK2, 10 ± 12%; on SGK1, 96 ± 7%. Also, the remaining activity at 1 µM on SIK2 came out at 2 ± 1%.

The values above are taken from paper PMC4286194 (Biochemical Journal, 2015).
